The target of assay [1] is T1, AChE (Homo sapiens, UniProt P22303). As to the kind of experiment: biochemical. The conditions noted are these: for inhibition at 50 µM: read-out: AChE % inhibition at 50 µM. How it is done:
(§1) Cholinesterase inhibitory activities of all analogs were evaluated spectrometrically using the modified Ellman method as previously reported. […] The absorbance of each well was measured at 415 nm using a microplate reader. IC50 and inhibition values were calculated with the software GraphPad Prism as the mean of three independent experiments and expressed as mean ± SEM[42],[43].

In assay [2] the target is T2, BChE (Homo sapiens, UniProt P06276). As to the kind of experiment: BChE inhibition, modified Ellman method. Format: biochemical. The note with it: for inhibition at 50 µM: read-out: BChE % inhibition at 50 µM; for BChE inhibition, outcome in words: 50 µM screening. The procedure: as §1
The target of assay [3] is T1, AChE. The experiment in a line: Enzyme kinetic study against AChE (Lineweaver–Burk). It is filed as biochemical. How it is done: To investigate the type of inhibition of AChE and BChE, kinetic studies of 3m were conducted using various concentrations of ATCI or BTCI as a substrate.
(§2) A Lineweaver–Burk plot was generated to identify the type of inhibition and the Michaelis–Menten constant (Km) value was determined from plot between reciprocal of the substrate concentration (1/[S]) and reciprocal of enzyme rate (1/V) over the various inhibitor concentrations[44],[45].

Assay [4] has as its target T2, BChE. As to the kind of experiment: Enzyme kinetic study against BChE (Lineweaver–Burk). Format: biochemical. The procedure: as §2
A further assay concerns hAChE. The arrangement: method as in PMID 23078965. The conditions noted are these: previously reported; cited from earlier work.
For the next assay, the system named is hBChE. Further details: method as in PMID 23078965. The note with it: previously reported; cited from earlier work.
Assay [5] concerns the target T1, AChE. The arrangement: method as in doi:10.5530/ijper.52.4.75. The note with it: previously reported; unit inferred; cited from earlier work.
Assay [6] has as its target T2, BChE. The arrangement: method as in doi:10.5530/ijper.52.4.75. The conditions noted are these: previously reported; unit inferred; cited from earlier work.

“Also recorded” adds a separate entry of the source. Read-outs that look alike come from different tables or passages of the source.

T2 sequence (P06276 29-602, species assumed): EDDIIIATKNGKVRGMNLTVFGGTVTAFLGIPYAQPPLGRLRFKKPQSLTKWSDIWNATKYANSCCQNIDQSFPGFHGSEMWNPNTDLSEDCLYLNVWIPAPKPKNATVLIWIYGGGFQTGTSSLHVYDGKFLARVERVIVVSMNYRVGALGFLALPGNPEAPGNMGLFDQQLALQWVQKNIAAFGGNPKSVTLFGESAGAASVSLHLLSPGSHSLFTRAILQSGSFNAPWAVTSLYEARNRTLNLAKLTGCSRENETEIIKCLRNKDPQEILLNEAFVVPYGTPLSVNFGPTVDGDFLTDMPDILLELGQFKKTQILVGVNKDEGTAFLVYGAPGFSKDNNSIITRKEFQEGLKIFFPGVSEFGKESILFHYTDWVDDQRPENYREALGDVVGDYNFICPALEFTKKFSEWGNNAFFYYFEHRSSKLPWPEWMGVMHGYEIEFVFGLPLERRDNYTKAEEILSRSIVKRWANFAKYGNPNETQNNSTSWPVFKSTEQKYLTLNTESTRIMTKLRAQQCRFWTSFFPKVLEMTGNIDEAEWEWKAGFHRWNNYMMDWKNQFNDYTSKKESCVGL
T1 sequence (P22303 32-614): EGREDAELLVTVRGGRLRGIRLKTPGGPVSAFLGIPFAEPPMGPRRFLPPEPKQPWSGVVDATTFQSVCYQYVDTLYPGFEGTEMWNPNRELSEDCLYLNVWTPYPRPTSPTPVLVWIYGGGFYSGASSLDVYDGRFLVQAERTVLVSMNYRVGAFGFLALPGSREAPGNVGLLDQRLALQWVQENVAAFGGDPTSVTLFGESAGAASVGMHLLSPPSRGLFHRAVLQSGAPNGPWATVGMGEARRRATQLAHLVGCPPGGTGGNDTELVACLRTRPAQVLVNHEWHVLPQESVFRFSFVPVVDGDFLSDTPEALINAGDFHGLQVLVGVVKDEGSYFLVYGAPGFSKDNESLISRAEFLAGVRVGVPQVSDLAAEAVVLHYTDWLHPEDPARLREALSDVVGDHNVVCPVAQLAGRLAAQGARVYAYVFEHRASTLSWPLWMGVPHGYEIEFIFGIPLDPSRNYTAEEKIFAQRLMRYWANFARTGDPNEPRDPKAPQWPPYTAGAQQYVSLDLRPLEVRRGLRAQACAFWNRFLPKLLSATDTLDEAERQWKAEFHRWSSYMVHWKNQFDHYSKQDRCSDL

One may read the inhibition as the drop in the measured response relative to a control, in per cent. On to `COc1ccc(Nc2ncc(-c3ccccc3)cc2[N+](=O)[O-])cc1` [3a, N-(4-Methoxyphenyl)-3-nitro-5-phenylpyridin-2-amine], for which the inhibition at 50 µM on AChE [1] (50 µM, mean ± S.E) was 28.1 ± 3.93%; at BChE [2] (50 µM, mean ± S.E), 22.1 ± 0.33%.
Turning to `O=[N+]([O-])c1cc(-c2ccccc2)cnc1Nc1ccc(Cl)cc1` [3b, N-(4-Chlorophenyl)-3-nitro-5-phenylpyridin-2-amine], the inhibition at 50 µM at AChE [1] (50 µM, mean ± S.E) was determined as 59.9 ± 11%; at BChE [2] (50 µM, mean ± S.E), 27.5 ± 1.92%.
For `COc1ccc(Nc2ncc(-c3ccc(F)cc3)cc2[N+](=O)[O-])cc1` [3c, 5-(4-Fluorophenyl)-N-(4-methoxyphenyl)-3-nitropyridin-2-amine], the inhibition at 50 µM was 10.7 ± 2.31% on AChE [1] (50 µM, mean ± S.E) and 3.4 ± 1.63% at BChE [2] (50 µM, mean ± S.E). In addition, the “BChE inhibition, outcome in words” value on BChE [2] is “almost inactive”.
With `Cc1ccc(Nc2ncc(-c3ccc(F)cc3)cc2[N+](=O)[O-])cc1` [3d, 5-(4-Fluorophenyl)-3-nitro-N-(p-tolyl)pyridin-2-amine], the inhibition at 50 µM on AChE [1] (50 µM, mean ± S.E) stood at 39.4 ± 1.56%; on BChE [2] (50 µM, mean ± S.E) it was 46.4 ± 2.42%.
In the case of `O=[N+]([O-])c1cc(-c2ccc(F)cc2)cnc1Nc1ccc(Cl)cc1` [3e, N-(4-Chlorophenyl)-5-(4-fluorophenyl)-3-nitropyridin-2-amine], the inhibition at 50 µM at AChE [1] (50 µM, mean ± S.E) was determined as 19.3 ± 3.3%; on BChE [2] (50 µM, mean ± S.E), 19.6 ± 1.49%. Also, the “BChE inhibition, outcome in words” value at BChE [2] was “almost inactive”.
Take `COc1ccc(Nc2ncc(-c3ccc(Cl)cc3)cc2[N+](=O)[O-])cc1` [3f, 5-(4-Chlorophenyl)-N-(4-methoxyphenyl)-3-nitropyridin-2-amine]: the inhibition at 50 µM was found to be 33 ± 1.86% at AChE [1] (50 µM, mean ± S.E) and 31.7 ± 1.1% at BChE [2] (50 µM, mean ± S.E).
`O=[N+]([O-])c1cc(-c2ccc(Cl)cc2)cnc1Nc1ccc(Cl)cc1` [3g, N,5-Bis(4-chlorophenyl)-3-nitropyridin-2-amine]: the inhibition at 50 µM is 17.8 ± 2.74% at AChE [1] (50 µM, mean ± S.E) and 12.3 ± 0.99% at BChE [2] (50 µM, mean ± S.E).
For `Cc1ccccc1Nc1ncc(-c2ccc(Cl)cc2)cc1[N+](=O)[O-]` [3h, 5-(4-Chlorophenyl)-3-nitro-N-(o-tolyl)pyridin-2-amine], the inhibition at 50 µM on AChE [1] (50 µM, mean ± S.E) was found to be 23.1 ± 8.61%; on BChE [2] (50 µM, mean ± S.E) it was 14.6 ± 1.95%.
On to `O=[N+]([O-])c1cc(-c2ccc(Cl)cc2)cnc1Nc1cccc2ccccc12` [3i, 5-(4-Chlorophenyl)-N-(naphthalen-1-yl)-3-nitropyridin-2-amine], for which the inhibition at 50 µM at AChE [1] (50 µM, mean ± S.E) stood at 39.7 ± 1.67%; on BChE [2] (50 µM, mean ± S.E), 35.3 ± 5.14%.
Take `COc1ccc(Nc2ncc(-c3ccc(Br)cc3)cc2[N+](=O)[O-])cc1` [3j, 5-(4-Bromophenyl)-N-(4-methoxyphenyl)-3-nitropyridin-2-amine]: the inhibition at 50 µM was found to be 38.8 ± 3.27% at AChE [1] (50 µM, mean ± S.E) and 46.1 ± 0.92% on BChE [2] (50 µM, mean ± S.E).
Consider `O=[N+]([O-])c1cc(-c2ccc(Br)cc2)cnc1Nc1ccc(Cl)cc1` [3k, 5-(4-Bromophenyl)-N-(4-chlorophenyl)-3-nitropyridin-2-amine], for which the inhibition at 50 µM at AChE [1] (50 µM, mean ± S.E) worked out at 27.8 ± 1.75%; on BChE [2] (50 µM, mean ± S.E), 12.8 ± 1.7%.
As for `Cc1ccc(Nc2ncc(-c3ccc(Br)cc3)cc2[N+](=O)[O-])cc1` [3l, 5-(4-Bromophenyl)-3-nitro-N-(p-tolyl)pyridin-2-amine], the inhibition at 50 µM on AChE [1] (50 µM, mean ± S.E) was found to be 24.9 ± 5.01%; at BChE [2] (50 µM, mean ± S.E), 6.96 ± 0.74%.
As a reminder, the IC50 is the concentration at which inhibition is half-maximal. For orientation: Ki means a dissociation constant, usually derived from enzyme kinetics or from competition with a known ligand. Regarding `CC(C)(C)c1cc[n+](-c2cnc(Nc3ccc(Cl)cc3)c([N+](=O)[O-])c2)cc1.[O-][Cl+3]([O-])([O-])[O-]` [3m, 4-(Tert-butyl)-6ʹ-((4-chlorophenyl)amino)-5'-nitro-[1,3'-bipyridin]-1-ium perchlorate], on AChE [1], the 50% inhibitory concentration (IC50) worked out at 34.8 ± 3.71 µM and the inhibition at 50 µM was determined as 74.3 ± 5.86%. In addition, at BChE [2], inhibition was half-maximal at 20.7 ± 1.01 µM (IC50), the “selectivity ratio for BChE over AChE” value was 1.686 and the inhibition at 50 µM is 76.7 ± 6.01%. Further, the “type of inhibition, AChE” value at AChE [3] (Lineweaver–Burk plot) is “mixed inhibition; also recorded: mix-type inhibition”. Besides, at AChE [3] (secondary plot of Lineweaver–Burk data, substrate ATCI, read-out: inhibition constant (Ki), AChE), the inhibitory constant (Ki) came to 8.92 µM. In addition, at BChE [4] (Lineweaver–Burk plot), the “type of inhibition, BChE” value is on record as “mixed type of inhibition; also recorded: mix-type inhibition”. Besides, the “Kis, BChE” value on BChE [4] (plot of 1/Vmax vs inhibitor concentration, substrate BTCI) turned out to be 46.27 µM. The molecule also returned an inhibition constant Ki at BChE [4] (plot of slope vs inhibitor concentration, substrate BTCI) of 17.5 µM.
Turning to `Cc1ccccc1Nc1ncc(-c2cccc3ccccc23)cc1[N+](=O)[O-]` [3n, 5-(Naphthalen-1-yl)-3-nitro-N-(o-tolyl)pyridin-2-amine], the inhibition at 50 µM at AChE [1] (50 µM, mean ± S.E) worked out at 40.7 ± 2.6%; at BChE [2] (50 µM, mean ± S.E), 38.9 ± 2.97%.
The matching figures for `Cc1ccc(Nc2ncc(-c3cccc4ccccc34)cc2[N+](=O)[O-])cc1` [3o, 5-(Naphthalen-1-yl)-3-nitro-N-(p-tolyl)pyridin-2-amine]: 35.6 ± 4.63% and 22.8 ± 2.7%.
On to `O=[N+]([O-])c1cc(-c2cccc3ccccc23)cnc1Nc1ccc(Cl)cc1` [3p, N-(4-Chlorophenyl)-5-(naphthalen-1-yl)-3-nitropyridin-2-amine], for which the inhibition at 50 µM on AChE [1] (50 µM, mean ± S.E) is 21.4 ± 1.86%; on BChE [2] (50 µM, mean ± S.E), 11.7 ± 0.12%.
The matching figures for `O=[N+]([O-])c1cc(-c2cccc3ccccc23)cnc1Nc1cccc2ccccc12` [3q, N,5-Di(naphthalen-1-yl)-3-nitropyridin-2-amine]: 34 ± 2.39% and 53.07 ± 0.42%.
Regarding `N#Cc1cc(C#N)c(NCCCC2CCN(Cc3ccccc3)CC2)nc1N` [A], the IC50 in the assay with hAChE is 0.0094 ± 0.0004 µM; in the assay with hBChE, 6.6 ± 0.7 µM. Moreover, in the assay with hAChE, the “selectivity against hAChE than hBChE” value was 703 fold.
On to `O=C(N/N=C(/c1ccc(O)cc1)c1cccc(O)c1)Nc1ccncc1` [B], for which the IC50 is 5.58 ± 0.016 µM at AChE [5] and 6.44 ± 0.65 µM at BChE [6].

The values are drawn from paper PMC11178820, “Synthesis of novel aryl-substituted 2-aminopyridine derivatives by the cascade reaction of 1,1-enediamines with vinamidinium salts to develop novel anti-Alzheimer agents” (Scientific Reports, 2024).
